The results in this text go back to US10584159B2, “Renilla based biosensors for monitoring biomolecule localization and trafficking in cells” (The Royal Institution for the Advancement of …, priority 2014, dated 2020).

Holding throughout (type): cell-based
In test [1] the target is T1, hMC4R wt (Homo sapiens, UniProt P32245).
T1 construct: expressed in transfected cells; host or cells: HEK293
The experiment in a line: BRET pharmacological chaperone rescue / sequestration assay (rGFP-CAAX), hMC4R wt-RlucII. Conditions: 10 μM, 16 h. Here is the method:
(§1) BRET assay for evaluation of PC rescue of cell surface expression and functionality (sequestration assay). In FIGS. 12A to 18E, Hek293 cells were transiently transfected using PEI as described in this section. The DNA transfected per well of a 96-well plate is as follow: in FIGS. 12A and 12B, with 2.4 ng of hMC4R-RlucII encoding construct and an increasing quantity of rGFP-CAAX (Kras) up to 9.6 ng for FIGS. 12A and for 12B, rGFP-PB up to 9.6 ng; in FIGS. 13A to 13C with 0.6, 1.2 or 2.4 ng of hMC4R-RlucII and 4.8 ng of rGFP-CAAX (Kras); in FIG. 13D with 2.4 ng of polycistronic rGFP-CAAX(Kras)/MC4R-RlucII construct; in FIG. 13E with 1.2 ng of hV2R-RlucII and 4.8 ng of rGFP-CAAX (Kras); in FIGS. 14A to 16B with 2.4 ng of hMC4R-RlucII and 7.2 ng of rGFP-CAAX (Kras); Hek293 cells stably expressing rGFP-CAAX(Kras) were transfected with 0.6, 1.2 or 2.4 ng of hMC4R-RlucII; in FIG. 17A or 0.6, 1.2 or 2.4 ng of hV2R_Y128S-RlucII; in FIG. 17B; in FIGS. 18A and 18B with 0.6, 1.2 or 2.4 ng of hERG-RlucII and 4.8 ng of rGFP-CAAX (Kras); and in FIGS. 18C-18E with 0.6 ng of hERG-RlucII and 7.2 ng of rGFP-CAAX (Kras). […] For the BRET assay, cells were washed once with PBS and left in Tyrode's buffer. […] BRET values were determined by calculating the ratio of the light emitted by the acceptor over the light emitted by the RlucII.
(In general: BRET reads energy transfer from a luciferase to a nearby fluorophore.)

In test [2] the target is T2, hMC4R (R165Q) (Homo sapiens, UniProt P32245, R165Q).
T2 construct: expressed in transfected cells; host or cells: HEK293
T2 sequence (P32245 whole entry R165Q): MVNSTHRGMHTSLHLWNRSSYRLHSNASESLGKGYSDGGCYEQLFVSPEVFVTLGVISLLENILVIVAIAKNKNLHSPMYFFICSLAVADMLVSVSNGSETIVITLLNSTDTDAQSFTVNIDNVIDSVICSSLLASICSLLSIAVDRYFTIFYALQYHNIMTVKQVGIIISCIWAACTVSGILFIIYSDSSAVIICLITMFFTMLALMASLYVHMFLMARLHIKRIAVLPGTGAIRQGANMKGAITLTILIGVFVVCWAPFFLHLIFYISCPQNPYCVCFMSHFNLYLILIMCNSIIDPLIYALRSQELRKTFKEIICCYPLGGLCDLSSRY
The experiment in a line: BRET pharmacological chaperone rescue / sequestration assay (rGFP-CAAX), hMC4R (R165Q)-RlucII. Conditions: 10 μM, 16 h. Here is the method: as §1

Test [3] has as its target T3, hMC4R (P299H) (Homo sapiens, UniProt P32245, P299H).
T3 construct: expressed in transfected cells; host or cells: HEK293
In words: BRET pharmacological chaperone rescue assay (rGFP-CAAX), hMC4R (P299H)-RlucII. The note with it: 10 μM, 16 h. The protocol: as §1

In test [4] the target is T4, Prostaglandin F receptor (FP) (Homo sapiens, UniProt P43088).
T4 construct: expressed in transfected cells; host or cells: HEK293SL
T4 sequence (P43088 whole entry): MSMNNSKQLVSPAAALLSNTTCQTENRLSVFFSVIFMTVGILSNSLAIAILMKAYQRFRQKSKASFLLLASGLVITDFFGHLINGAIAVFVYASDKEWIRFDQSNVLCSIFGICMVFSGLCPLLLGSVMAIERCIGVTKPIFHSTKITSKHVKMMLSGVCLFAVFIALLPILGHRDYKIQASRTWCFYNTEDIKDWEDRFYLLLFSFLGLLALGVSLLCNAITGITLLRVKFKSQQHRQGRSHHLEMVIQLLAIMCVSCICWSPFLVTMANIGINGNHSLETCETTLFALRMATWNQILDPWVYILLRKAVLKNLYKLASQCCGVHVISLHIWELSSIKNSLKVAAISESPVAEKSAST
In words: Unimolecular DAG sensor BRET, FP activation. Conditions: FP-transfected HEK293SL, 1 min stimulation, read-out: EC50, DAG produced at the plasma membrane. The protocol: (§2) Unimolecular DAG sensor. For FIGS. 22B and C, HEK293SL cells stably expressing hAt1AR (˜50 fmol/mg) were cultured in DMEM supplemented with 10% FBS and 20 μg/ml gentamycin and seeded at a density of 75,000 cells/100 mm dishes and were transiently transfected the next day with 150 ng of construct encoding for the DAG unimolecular sensor, using calcium phosphate method as described previously. 48 h post-transfection, cells were washed and Coel-400a was added to a final concentration of 5 μM and incubated 3 min. […] Data are mean±SD of triplicates of a representative experiment. […] Data are mean±S.E. of six independent experiments. For FIGS. 22D and E, Hek293SL cells were transfected with FuGENE HD, according to Roche's protocol with a ratio of 2:1 fugene:DNA. 10 ng of construct encoding the unimolecular sensor and 400 ng for the receptor (FIGS. 22D, FP and in 2E, GPR14) complemented to 1 ug with ssDNA, were transfected per well of a 6 well plate. 48 h post-transfection, cells were washed, incubated in Tyrode's buffer for 1 h. […] For FIG. 22F, cells were transfected as in FIG. 22D but with just the unimolecular DAG sensor encoding construct. 48 h post-transfection, cells were washed, incubated in Tyrode's buffer for 1 h. […] Cells were then stimulated with 5 μM m-3m3FBS or just vehicle for the indicated time. […] 48 h post-transfection, cells were washed, incubated in Tyrode's buffer for 1 h.

In test [5] the test system is PLC (β2, β3, γ1, γ2, δ1 isoforms). In words: Unimolecular DAG sensor BRET, direct PLC activation. Conditions: 5 uM. The protocol: as §2

T3 sequence (P32245 whole entry P299H): as the sequence (P32245 whole entry R165Q) above, with Q165R, P299H counted along it
T1 sequence (P32245 whole entry): as the sequence (P32245 whole entry R165Q) above, with Q165R counted along it

Regarding `CCC(=O)N[C@H](Cc1ccc(Cl)cc1Cl)C(=O)N1CCN(c2ccccc2CNC(C)COC)CC1` (stereo partly drawn) [DCPMP, N-((2R)-3(2,4-dichloroPhenyl)-1-(4-(2-((1-methoxypropan-2-ylamino)methyl)phenyl)piperazin-1-yl)-1-oxopropan-2-yl)propionamide], the entries for the “PC-mediated rescue of cell surface expression” value in test [1], in test [2] and in test [3] were “increase in BRET signal”, “increase in BRET signal” and “not PC-rescued”, respectively.

A word on the EC50: it is the concentration giving half of the maximal effect. `CCCCC[C@H](O)/C=C/[C@H]1[C@H](O)CC(=O)[C@@H]1C/C=C\CCCC(=O)O` [PGE2, Prostaglandin E2]: the half-maximal effective concentration (EC50) in test [4] was 90 nM.

Consider `Cc1cc(C)c(S(=O)(=O)Nc2cccc(C(F)(F)F)c2)c(C)c1` [m-3m3FBS, N-(3-Trifluoromethylphenyl)-2,4,6-trimethylbenzenesulfonamide], for which the “BRET response of DAG sensor” value in test [5] is recorded as “increase in BRET”.
